From patent publication US8410302B2, “Methoxyimino compounds and fungicide composition comprising same” (Kyung Nong Corporation, priority 2007, dated 2013)
Read-outs that look alike come from different tables or passages of the source.

Key:
Erysiphae graminis = test: Fungicidal activity against barley powdery mildew (BPM) disease, control value; assay type: in vivo
Rhizoctonia solani AG-1 = test: Fungicidal activity against rice sheath blight (RSB) disease, control value; details: for RSB control value (C.V.): 100 ppm, rice sheath blight
Phytophthora infestans = test: whole plant or invertebrate; assay type: in vivo; details: for TLB control value (C.V.): tomato late blight
[1] = tested on: Pyricularia oryzae Carvara KA301; test: whole plant or invertebrate; assay type: in vivo; details: for pest or weed control at 2 ppm / pest or weed control at 10 ppm / pest or weed control at 50 ppm / pest or weed control at 100 ppm: Pyricularia oryzae, read-out: RCB control value (C.V.); for RCB control value (C.V.): rice blast
Botrytis cinerae = test: Fungicidal activity against cucumber gray mold rot (CGM) disease, control value; assay type: in vivo; details: for pest or weed control at 100 ppm / CGM control value (C.V.): 100 ppm
Puccinia recondita = test: Fungicidal activity against wheat leaf rust (WLR) disease, control value; assay type: in vivo
[2] = Hordeum vulgare, 168 h, 50 ppm, barley powdery mildew, read-out: BPM control value (C.V.)
[3] = Hordeum vulgare, 168 h, 100 ppm, barley powdery mildew, read-out: BPM control value (C.V.)
[4] = Rhizoctonia solani, AG1, in Oryza sativa, read-out: RSB control value (C.V.)
[5] = Phytophthora infestans, in Solanum lycopersicum, read-out: TLB control value (C.V.)
[6] = Botrytis, cucumber gray mold rot, read-out: CGM control value (C.V.)
[7] = 2 ppm, wheat leaf rust, read-out: WLR control value (C.V.)
[8] = 10 ppm, wheat leaf rust, read-out: WLR control value (C.V.)
[9] = 50 ppm, wheat leaf rust, read-out: WLR control value (C.V.)
[10] = 100 ppm, wheat leaf rust, read-out: WLR control value (C.V.)
[11] = 168 h, 2 ppm, read-out: BPM control value (C.V.)
[12] = 168 h, 10 ppm, read-out: BPM control value (C.V.)
[13] = 168 h, 50 ppm, read-out: BPM control value (C.V.)
[14] = 168 h, 100 ppm, read-out: BPM control value (C.V.)
[15] = Botrytis, read-out: CGM control value (C.V.)
[16] = Puccinia recondita, 2 ppm, read-out: WLR control value (C.V.)
[17] = Puccinia recondita, 10 ppm, read-out: WLR control value (C.V.)
[18] = Puccinia recondita, 50 ppm, read-out: WLR control value (C.V.)
[19] = Puccinia recondita, 100 ppm, read-out: WLR control value (C.V.)

SMILES | pest or weed control at 100 ppm (Rhizoctonia solani AG-1; [4]) [%] | pest or weed control at 2 ppm (Phytophthora infestans; [5]) [%] | pest or weed control at 10 ppm (Phytophthora infestans; [5]) [%] | pest or weed control at 50 ppm (Phytophthora infestans; [5]) [%] | pest or weed control at 100 ppm (Phytophthora infestans; [5]) [%] | pest or weed control at 2 ppm [1] [%] | pest or weed control at 10 ppm [1] [%] | pest or weed control at 50 ppm [1] [%] | pest or weed control at 100 ppm [1] [%] | pest or weed control at 2 ppm (Erysiphae graminis; [11]) [%] | pest or weed control at 10 ppm (Erysiphae graminis; [12]) [%] | pest or weed control at 50 ppm (Erysiphae graminis; [13]) [%] | pest or weed control at 100 ppm (Erysiphae graminis; [14]) [%] | pest or weed control at 2 ppm (Rhizoctonia solani AG-1; [4]) [%] | pest or weed control at 10 ppm (Rhizoctonia solani AG-1; [4]) [%] | pest or weed control at 50 ppm (Rhizoctonia solani AG-1; [4]) [%] | pest or weed control at 100 ppm (Botrytis cinerae; [15]) [%] | pest or weed control at 2 ppm (Puccinia recondita; [16]) [%] | pest or weed control at 10 ppm (Puccinia recondita; [17]) [%] | pest or weed control at 50 ppm (Puccinia recondita; [18]) [%] | also measured
CNC(=O)/C(=N/OC)c1ccccc1COc1ccc(C=C(F)F)cc1 [Example 10, (E)-2-(2-((4-(2,2-difluorovinyl)phenoxy)methyl)phenyl)-2-methoxyimino-N-methylacetamide] | 45 | 100 | 100 | 100 | 100 | 100 | 100 | 100 | 100 | – | – | – | – | – | – | – | – | – | – | – | pest or weed control at 50 ppm (Erysiphae graminis; [2]): 60%; pest or weed control at 100 ppm (Erysiphae graminis; [3]): 98%; pest or weed control at 100 ppm (Botrytis cinerae; [6]): 50%; pest or weed control at 2 ppm (Puccinia recondita; [7]): 100%; pest or weed control at 10 ppm (Puccinia recondita; [8]): 100%; pest or weed control at 50 ppm (Puccinia recondita; [9]): 100%; pest or weed control at 100 ppm (Puccinia recondita; [10]): 100%
CO/N=C(/C(=O)OC)c1ccccc1COc1ccc(C=C(Cl)Cl)cc1 [Example 3, methyl-(E)-2-(2-((4-(2,2-dichlorovinyl)phenoxy)methyl)phenyl)-2-methoxyiminoacetate] | 60 | 0 | 35 | 95 | 98 | 30 | 90 | 100 | 100 | – | – | – | – | – | – | – | – | – | – | – | pest or weed control at 2 ppm (Erysiphae graminis; Hordeum vulgare, 168 h, 2 ppm, barley powdery mildew, read-out: BPM control value (C.V.)): 20%; pest or weed control at 10 ppm (Erysiphae graminis; Hordeum vulgare, 168 h, 10 ppm, barley powdery mildew, read-out: BPM control value (C.V.)): 50%; pest or weed control at 50 ppm (Erysiphae graminis; [2]): 95%; pest or weed control at 100 ppm (Erysiphae graminis; [3]): 95%; pest or weed control at 100 ppm (Botrytis cinerae; [6]): 50%; pest or weed control at 2 ppm (Puccinia recondita; [7]): 40%; pest or weed control at 10 ppm (Puccinia recondita; [8]): 90%; pest or weed control at 50 ppm (Puccinia recondita; [9]): 100%; pest or weed control at 100 ppm (Puccinia recondita; [10]): 100%
CO/N=C(/C(=O)OC)c1ccccc1COc1ccc(F)cc1C=C(Cl)Cl [Example 55, methyl-(E)-2-(2-((2-(2,2-dichlorovinyl)-4-fluorophenoxy)methyl)phenyl)-2-methoxyiminoacetate] | 100 | 99 | 100 | 100 | 100 | 100 | 100 | 100 | 100 | 100 | 100 | 100 | 100 | 90 | 100 | 100 | 75 | 100 | 100 | 100 | pest or weed control at 50 ppm (Botrytis cinerae; [15]): 25%; pest or weed control at 100 ppm (Puccinia recondita; [19]): 100%
CCOc1cc(C=C(Br)Br)ccc1OCc1ccccc1/C(=N\OC)C(=O)OC [Example 83, methyl-(E)-2-(2-((4-(2,2-dibromovinyl)-2-ethoxyphenoxy)methyl)phenyl)-2-methoxyiminoacetate] | 100 | 70 | 90 | 98 | 100 | 50 | 90 | 100 | 100 | 95 | 100 | 100 | 100 | 75 | 98 | 100 | 50 | 95 | 100 | 100 | pest or weed control at 100 ppm (Puccinia recondita; [19]): 100%
CNC(=O)/C(=N/OC)c1ccccc1COc1ccc(C=C(Br)Br)cc1Br [Example 78, (E)-2-(2-((2-bromo-4-(2,2-dibromovinyl)phenoxy)methyl)phenyl)-2-methoxyimino-N-methylacetamide] | 100 | 70 | 90 | 98 | 100 | 40 | 90 | 98 | 100 | 90 | 100 | 100 | 100 | 65 | 98 | 100 | 40 | 95 | 98 | 100 | pest or weed control at 100 ppm (Puccinia recondita; [19]): 100%
OC(c1ccc(Cl)cc1)(c1cncnc1)c1ccccc1Cl (stereo not drawn) [Fenarimol, reference compound] | – | 75 | 80 | 95 | – | – | 0 | 20 | – | 100 | 100 | 100 | – | 40 | 85 | 100 | – | 80 | 100 | 100 | pest or weed control at 0.4 ppm (Erysiphae graminis; 168 h, 0.4 ppm, read-out: BPM control value (C.V.)): 95%; pest or weed control at 0.4 ppm (Rhizoctonia solani AG-1; [4]): 30%; pest or weed control at 0.4 ppm (Phytophthora infestans; [5]): 65%; pest or weed control at 0.4 ppm (Botrytis cinerae; Botrytis, 0.4 ppm, read-out: CGM control value (C.V.)): 7%; pest or weed control at 2 ppm (Botrytis cinerae; Botrytis, 2 ppm, read-out: CGM control value (C.V.)): 7%; pest or weed control at 10 ppm (Botrytis cinerae; Botrytis, 10 ppm, read-out: CGM control value (C.V.)): 7%; pest or weed control at 50 ppm (Botrytis cinerae; [15]): 30%; pest or weed control at 0.4 ppm (Puccinia recondita; Puccinia recondita, 0.4 ppm, read-out: WLR control value (C.V.)): 15%
CNC(=O)/C(=N/OC)c1ccccc1CON=C(C)c1ccc(C=C(Br)Br)cc1 [Example 26, (E)-2-[[[[[2-[4-(2,2-dibromovinyl)phenyl](1-methyl)methylidene]amino]oxy]methyl]phenyl]-2-methoxyimino-N-methylacetamide] | – | – | – | – | – | – | – | – | – | – | – | – | – | – | – | – | – | – | – | – | BPM control value (C.V.) (Erysiphae graminis; 2 ppm, barley powdery mildew): 99%; BPM control value (C.V.) (Erysiphae graminis; 10 ppm, barley powdery mildew): 100%; BPM control value (C.V.) (Erysiphae graminis; 50 ppm, barley powdery mildew): 100%; BPM control value (C.V.) (Erysiphae graminis; 100 ppm, barley powdery mildew): 100%; RSB control value (C.V.) (Rhizoctonia solani AG-1): 32%; TLB control value (C.V.) (Phytophthora infestans; 2 ppm): 98%; TLB control value (C.V.) (Phytophthora infestans; 10 ppm): 100%; TLB control value (C.V.) (Phytophthora infestans; 50 ppm): 100%; TLB control value (C.V.) (Phytophthora infestans; 100 ppm): 100%; RCB control value (C.V.) ([1]; 2 ppm): 90%; RCB control value (C.V.) ([1]; 10 ppm): 97%; RCB control value (C.V.) ([1]; 50 ppm): 100%; RCB control value (C.V.) ([1]; 100 ppm): 100%; CGM control value (C.V.) (Botrytis cinerae; cucumber gray mold rot): 7%; WLR control value (C.V.) (Puccinia recondita; 2 ppm, wheat leaf rust): 90%; WLR control value (C.V.) (Puccinia recondita; 10 ppm, wheat leaf rust): 90%; WLR control value (C.V.) (Puccinia recondita; 50 ppm, wheat leaf rust): 98%; WLR control value (C.V.) (Puccinia recondita; 100 ppm, wheat leaf rust): 100%
CO/N=C(/C(=O)OC)c1ccccc1COc1c(C)cccc1C=C(Br)Br [Example 73, methyl-(E)-2-(2-((2-(2,2-dibromovinyl)-6-methylphenoxy)methyl)phenyl)-2-methoxyiminoacetate] | 10 | – | 10 | 90 | 100 | 70 | 90 | 100 | 100 | 15 | 60 | 93 | 95 | – | – | – | 20 | 100 | 100 | 100 | pest or weed control at 100 ppm (Puccinia recondita; [19]): 100%
CNC(=O)/C(=N/OC)c1ccccc1CON=C(C)c1ccc(C=C(F)F)cc1 [Example 30, (E)-2-[[[[[2-[4-(2,2-difluorovinyl)phenyl](1-methyl)methylidene]amino]oxy]methyl]phenyl]-2-methoxyimino-N-methylacetamide] | – | – | – | – | – | – | – | – | – | – | – | – | – | – | – | – | – | – | – | – | BPM control value (C.V.) (Erysiphae graminis; 50 ppm, barley powdery mildew): 60%; BPM control value (C.V.) (Erysiphae graminis; 100 ppm, barley powdery mildew): 98%; RSB control value (C.V.) (Rhizoctonia solani AG-1): 45%; TLB control value (C.V.) (Phytophthora infestans; 2 ppm): 100%; TLB control value (C.V.) (Phytophthora infestans; 10 ppm): 100%; TLB control value (C.V.) (Phytophthora infestans; 50 ppm): 100%; TLB control value (C.V.) (Phytophthora infestans; 100 ppm): 100%; RCB control value (C.V.) ([1]; 2 ppm): 100%; RCB control value (C.V.) ([1]; 10 ppm): 100%; RCB control value (C.V.) ([1]; 50 ppm): 100%; RCB control value (C.V.) ([1]; 100 ppm): 100%; CGM control value (C.V.) (Botrytis cinerae; cucumber gray mold rot): 60%; WLR control value (C.V.) (Puccinia recondita; 2 ppm, wheat leaf rust): 90%; WLR control value (C.V.) (Puccinia recondita; 10 ppm, wheat leaf rust): 100%; WLR control value (C.V.) (Puccinia recondita; 50 ppm, wheat leaf rust): 100%; WLR control value (C.V.) (Puccinia recondita; 100 ppm, wheat leaf rust): 100%
